Measured values: publication PMC8351955, “Targeting Mycobacterium tuberculosis response to environmental cues for the development of effective antitubercular drugs” (PLoS Biology, 2021)
Where “and” joins values, the source holds several entries; their conditions need not be identical. Equal values may be shown once.

Experiments:
Mouse plasma stability = format: in vitro ADME; conditions: 5-h incubation
CYP2D6 = CYP2D6 (Homo sapiens, UniProt P10635); experiment: Human cytochrome P450 inhibition, 2D6; format: in vitro ADME; conditions: read-out: % inhibition of CYP 2D6
Protocol: (§1) Assays examining mouse and human liver microsomal stability, kinetic aqueous solubility, mouse and human plasma protein binding and stability, and human cytochrome P450 inhibition characteristics of the compounds were run by BioDuro (San Diego, CA), using standard protocols as previously described [37]. hERG inhibition assays were also performed by BioDuro.

[1] = tested on: Mtb growth in cholesterol media; set-up: method as in PubChem AID 1259343; conditions: ref PubChem AID 1259343; cited from earlier work
Mtb [2] = experiment: Mtb growth assay in standard 7H9 medium (OD600); conditions: for OD600: Fig. 2F
From the text: Bacterial growth was tracked by measuring OD600 every 3 days for 12 days. […] Bacterial growth was tracked by measurement of OD600 every 3 days over 12 days.

CYP2C9 = CYP2C9 (Homo sapiens, UniProt P11712); experiment: Human cytochrome P450 inhibition, 2C9; format: in vitro ADME; conditions: read-out: % inhibition of CYP 2C9
Protocol: as §1

Mtb [3] = experiment: Mouse Mtb infection, C3HeB/FeJ model, oral C6; format: in vivo, C3HeB/FeJ mice; conditions: for CFU/ml: individual values
Protocol: C3HeB/FeJ wild-type mice (The Jackson Laboratory) were infected intranasally with 10^3 CFUs of Mtb (35 μl), under light anesthesia with 2% isoflurane. […] The next day, the suspension was homogenized by bead beating with 5 mm steel beads in a TOMY microtube mixer (2 × 20 seconds) and stored at 4°C until use. […] Administration began at 2 or 6 weeks post-infection as indicated. At time of sacrifice, the left lobe and accessory right lobe of the lung were homogenized in PBS + 0.05% Tween 80 and serial dilutions plated on 7H10 agar plates with 100 μg/ml cycloheximide for bacterial load determination. The remaining 3 right lobes were fixed in 4% PFA in PBS. One lobe was used for histological analysis by standard hematoxylin and eosin (H&E) staining (Tufts Comparative Pathology Services). A Nikon Eclipse E400 with a SPOT insight color digital camera was used to image the histology samples.

[4] = Human plasma protein binding; format: in vitro ADME
Human plasma stability = format: in vitro ADME; conditions: 5-h incubation
Protocol: as §1

Mtb-infected J774 cells = conditions: 10 μM, 24 hours, 5 days post-infection
[5] = tested on: WT Mtb (Erdman) in primary murine BMDMs; experiment: Primary murine bone marrow-derived macrophage infection, CFU; format: cell-based, Mycobacterium tuberculosis; conditions: for CFU/ml in BMDMs, average: Fig 1I; for CFU/ml: Fig. 2E, 10 µM
[6] = tested on: Mtb growth in J774 murine macrophage-like cells; experiment: microbe, parasite or virus in culture; format: cell-based, Mycobacterium tuberculosis; conditions: for NPI (Mtb growth in J774 cells), average: Fig 1F

Chain of CYP2C9 (P11712 whole entry): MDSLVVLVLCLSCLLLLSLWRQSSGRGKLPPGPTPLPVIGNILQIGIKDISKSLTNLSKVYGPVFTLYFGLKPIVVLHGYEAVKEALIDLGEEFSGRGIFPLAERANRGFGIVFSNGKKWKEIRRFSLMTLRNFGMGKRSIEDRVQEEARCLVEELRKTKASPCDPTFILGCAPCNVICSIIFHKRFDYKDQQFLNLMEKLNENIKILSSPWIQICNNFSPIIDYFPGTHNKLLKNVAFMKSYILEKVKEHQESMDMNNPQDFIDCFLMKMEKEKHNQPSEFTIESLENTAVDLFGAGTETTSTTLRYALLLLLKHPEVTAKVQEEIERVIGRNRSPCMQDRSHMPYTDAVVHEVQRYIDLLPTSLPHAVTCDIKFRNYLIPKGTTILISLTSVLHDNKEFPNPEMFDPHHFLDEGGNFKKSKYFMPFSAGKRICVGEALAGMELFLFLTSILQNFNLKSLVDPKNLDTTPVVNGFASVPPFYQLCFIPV
Chain of CYP2D6 (P10635 whole entry): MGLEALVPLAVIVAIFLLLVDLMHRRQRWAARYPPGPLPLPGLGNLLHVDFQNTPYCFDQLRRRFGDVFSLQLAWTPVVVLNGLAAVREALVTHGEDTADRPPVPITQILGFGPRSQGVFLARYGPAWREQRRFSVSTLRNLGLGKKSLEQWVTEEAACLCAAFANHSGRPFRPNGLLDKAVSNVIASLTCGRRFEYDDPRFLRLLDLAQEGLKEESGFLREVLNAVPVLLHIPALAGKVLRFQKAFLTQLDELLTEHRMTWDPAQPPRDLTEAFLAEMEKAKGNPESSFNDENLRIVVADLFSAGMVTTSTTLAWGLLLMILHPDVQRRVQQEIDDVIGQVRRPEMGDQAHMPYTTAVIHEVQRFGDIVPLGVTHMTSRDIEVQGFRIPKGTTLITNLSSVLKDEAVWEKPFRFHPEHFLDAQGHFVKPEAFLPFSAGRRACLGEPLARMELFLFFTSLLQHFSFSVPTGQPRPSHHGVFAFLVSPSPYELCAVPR

For `CCSc1ncc(CN2CCN(c3nc4ccccc4o3)CC2)cn1` [C6, 2-(4-((2-(ethylthio)pyrimidin-5-yl)methyl)piperazin-1-yl)benzo[d]oxazole], the remaining at 5 h (Mouse plasma stability) is given as greater than 99.9%, the inhibition at 10 µM (CYP2D6) is given as 10.5% and the “Call in screen for inhibition of Mtb growth in cholesterol media” value [1] is given as “positive for growth inhibition”. For the same compound, the “Effect on Mtb growth in standard 7H9 media” value (Mtb [2]; 10 μM, OD600 over 12 days) was “no effect”, the OD600 (Mtb [2]; day 3, average) was 0.1933 and the OD600 (Mtb [2]; day 3, individual replicates) was 0.2 (2×) and 0.18. For the same compound, the OD600 (Mtb [2]; day 6, average) was 0.3733, the OD600 (Mtb [2]; day 6, individual replicates) was 0.38 (2×) and 0.36 and the OD600 (Mtb [2]; day 9, average) was 0.4933. The OD600 (Mtb [2]; day 9, individual replicates) was 0.5 (2×) and 0.48, the OD600 (Mtb [2]; day 12, average) was 0.6333 and the OD600 (Mtb [2]; day 12, individual replicates) was 0.64 (2×) and 0.62. The inhibition at 10 µM (CYP2C9) was 25.7%, the “Lung bacterial load, short-term infection model” value (Mtb [3]; 250 mg/kg oral gavage 5 times a week for 2 weeks, started 2 weeks post-infection) was “significantly inhibited Mtb growth” and the “Lung bacterial load, longer-term infection model” value (Mtb [3]; 250 mg/kg oral gavage for 2 or 4 weeks, started 6 weeks post-infection) was “significant decrease in bacterial load”. For the same compound, the “Lung histology, short-term infection model” value (Mtb [3]; 250 mg/kg, 2-week treatment from 2 weeks post-infection) was “less cellular infiltration”, the “Lung histopathology, longer-term infection model” value (Mtb [3]; 250 mg/kg, 2 or 4 weeks treatment from 6 weeks post-infection) was “improved histopathology” and the CFU/ml (Mtb [3]; Fig. 4A, 4 weeks (pre-treatment 2 weeks)) was 5260000 CFU/ml and 1940000 CFU/ml and 7340000 CFU/ml and 338000 CFU/ml and 3180000 CFU/ml and 1920000 CFU/ml and 1820000 CFU/ml and 13560000 CFU/ml. For the same compound, the CFU/ml (Mtb [3]; Fig. 4C, 8 weeks (pre-treatment 6 weeks)) was 38000 CFU/ml and 860000 CFU/ml and 9200000 CFU/ml and 3340000 CFU/ml and 4100000 CFU/ml and 2340000 CFU/ml and 68000 CFU/ml and 304000 CFU/ml and 270000000 CFU/ml and 3980000 CFU/ml and 234000 CFU/ml and 64000 CFU/ml and 21800 CFU/ml and 62000 CFU/ml, the CFU/ml (Mtb [3]; Fig. 4C, 10 weeks (pre-treatment 6 weeks)) was 338000 CFU/ml and 29000 CFU/ml and 2660 CFU/ml and 228000 CFU/ml and 188000 CFU/ml and 43000000 CFU/ml and 112000 CFU/ml and 17800000 CFU/ml and 926000 CFU/ml and 42800000 CFU/ml and 132000 CFU/ml and 118000 CFU/ml and 720000 CFU/ml and the fraction unbound [4] was 0.008. The remaining at 5 h (Human plasma stability) was 94.6%, the “Accumulation in Mtb-infected J774 cells” value (Mtb-infected J774 cells) was “confirmed C6 accumulation” and the “Effect on bacterial load / Mtb growth in primary murine BMDMs” value ([5]; 10 μM, 8-day infection time course, vs DMSO) was “significant decrease in bacterial load”. The “CFU/ml in BMDMs, average” value ([5]; 10 μM, day 2) was 153500 CFU/ml, the “CFU/ml in BMDMs, average” value ([5]; 10 μM, day 4) was 188500 CFU/ml and the “CFU/ml in BMDMs, average” value ([5]; 10 μM, day 6) was 283000 CFU/ml. For the same compound, the “CFU/ml in BMDMs, average” value ([5]; 10 μM, day 8) was 322500 CFU/ml, the CFU/ml ([5]; day 2, average) was 426000 CFU/ml and the CFU/ml ([5]; day 2, individual replicates) was 406000 CFU/ml and 418000 CFU/ml and 454000 CFU/ml. For the same compound, the CFU/ml ([5]; day 4, average) was 573333 CFU/ml, the CFU/ml ([5]; day 4, individual replicates) was 580000 CFU/ml and 640000 CFU/ml and 500000 CFU/ml and the CFU/ml ([5]; day 6, average) was 746667 CFU/ml. For the same compound, the CFU/ml ([5]; day 6, individual replicates) was 700000 CFU/ml and 660000 CFU/ml and 880000 CFU/ml, the CFU/ml ([5]; day 8, average) was 1020000 CFU/ml and the CFU/ml ([5]; day 8, individual replicates) was 880000 CFU/ml and 1100000 CFU/ml and 1080000 CFU/ml. The “NPI (Mtb growth in J774 cells), average” value ([6]; 0.078125 µM, 5 µM rifampicin = 100% inhibition) was -7.09%, the “NPI (Mtb growth in J774 cells), average” value ([6]; 0.15625 µM) was -2.13% and the “NPI (Mtb growth in J774 cells), average” value ([6]; 0.3125 µM) was -0.93%. The “NPI (Mtb growth in J774 cells), average” value ([6]; 0.625 µM) was -0.1%, the “NPI (Mtb growth in J774 cells), average” value ([6]; 1.25 µM) was 17.45% and the “NPI (Mtb growth in J774 cells), average” value ([6]; 2.5 µM) was 26.3%. For the same compound, the “NPI (Mtb growth in J774 cells), average” value ([6]; 5 µM) was 38%, the “NPI (Mtb growth in J774 cells), average” value ([6]; 10 µM) was 40.45% and the “NPI (Mtb growth in J774 cells), average” value ([6]; 20 µM) was 53.6%. For the same compound, the inhibition at 10 µM ([6]; Mycobacterium tuberculosis, J774, 144 h, read-out: J774 tertiary assay % inhibition compared to Rif at 10 µM compound) was 40.5 ± 0.6% and the inhibition at 20 µM ([6]; Mycobacterium tuberculosis, J774, 144 h, read-out: J774 tertiary assay % inhibition compared to Rif at 20 µM compound) was 53.6 ± 2.7%.
